Each compound was assayed on HBV (assay: HBV-DNA Antiviral Assay Using HepG2.117 Cells (intracellular HBV DNA by qPCR)). Conditions: Hepatitis B virus, HepG2.117.
Format: cell-based, hepatitis B virus (genotype D)
How it was run: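 Endpoint: qPCR copy number of intracellular HBV DNA after 3-day compound exposure, with inhibition set relative to the 2% DMSO control. The cells were doxycycline-free HepG2.117 carrying a Tet-off genotype D genome, dosed at nine 4-fold dilutions. A duplicate plate gave ATP-based viability (CC50).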

| Compound | EC50 [nM] |
| --- | --- |
| COc1cc(CNC(=O)c2c3n(c(=O)n2-c2ccc(OC(C)C)cc2)CCN(C(=O)c2ccc(Br)c(Cl)c2)C3)ccc1C#N [Example 211, 7-(4-bromo-3-chloro-benzoyl)-N-[(4-cyano-3-methoxy-phenyl)methyl]-2-(4-isopropxoyphenyl)-3-oxo-6,8-dihydro-5H-imidazo[1,5-a]pyrazine-1-carboxamide] | 500 to 5000 |
| COc1ccc(-n2c(C(=O)N[C@@H]3CCc4cc(OC)ccc43)c3n(c2=O)CCN(C(=O)c2ccc(Br)c(Cl)c2)C3)cc1 (stereo in doubt) [Example 99, 7-(4-bromo-3-chloro-benozyl)-2-(4-methoxyphenyl)-3-oxo-N-[rac-(1R)-5-methoxyindazin-1-yl]-6,8-dihydro-5H-imidazo[1,5-a]pyrazine-1-carboxamide] | 500 to 5000 |
| O=C(NCc1ccccc1)c1c2n(c(=O)n1-c1ccc(N3CCOCC3)cc1)CCN(C(=O)c1ccc(Br)c(Cl)c1)C2 [Example 278, N-benzyl-7-(4-bromo-3-chloro-benzoyl)-2-(4-morpholinophenyl)-3-oxo-6,8-dihydro-5H-imidazo[1,5-a]pyrazine-1-carboxamide] | 100 to 500 |
| C[C@H](NC(=O)c1c2n(c(=O)n1-c1ccc(OCC(F)(F)F)cc1)CCN(C(=O)c1ccc(Br)c(Cl)c1)C2)c1ccc(C#N)cc1F (racemic) [Example 299, 7-(4-bromo-3-chloro-benzoyl)-3-oxo-N-[rac-(1R)-1-(4-cyano-2-fluoro-phenyl)ethyl]-2-[4-(2,2,2-trifluoroethoxy)phenyl]-6,8-dihydro-5H-imidazo[1,5-a]pyrazine-1-carboxamide] | 500 to 5000 |
| O=C(NCc1ccccc1)c1c2n(c(=O)n1-c1ccc(-n3cncn3)cc1)CCN(C(=O)c1ccc(Br)c(Cl)c1)C2 [Example 395, N-benzyl-7-(4-bromo-3-chloro-benzoyl)-3-oxo-2-[4-(1,2,4-triazol-1-yl)phenyl]-6,8-dihydro-5H-imidazo[1,5-a]pyrazine-1-carboxamide] | 500 to 5000 |
| CC(C)Oc1ccc(-n2c(C(=O)NCc3ccccc3)c3n(c2=O)CCN(C(=O)/C=C/c2cccc(Cl)c2Cl)C3)cc1 [Example 226, N-benzyl-7-[(E)-3-(2,3-dichlorophenyl)prop-2-enoyl]-2-(4-isopropoxyphenyl)-3-oxo-6,8-dihydro-5H-imidazo[1,5-a]pyrazine-1-carboxamide] | > 5000 |
| COc1ccc([C@H](C)NC(=O)c2c3n(c(=O)n2-c2ccc(OC4CC4)cc2)C[C@H](C)N(C(=O)c2ccc(Br)c(Cl)c2)C3)cc1 (mixture of isomers) [Example 436, (6SR)-7-(4-bromo-3-chloro-benzoyl)-2-[4-(cyclopropoxy)phenyl]-N-[(1S)-1-(4-methoxyphenyl)ethyl]-6-methyl-3-oxo-6,8-dihydro-5H-imidazo[1,5-a]pyrazine-1-carboxamide] | < 100 |
| Cn1cnc2c(CNC(=O)c3c4n(c(=O)n3-c3ccc(OC5CC5)cc3)CCN(C(=O)c3ccc(Br)c(Cl)c3)C4)cccc21 [Example 399, 7-(4-bromo-3-chloro-benzoyl)-2-[4-(cyclopropoxy)phenyl]-N-[(1-methylbenzimidazol-4-yl)methyl]-3-oxo-6,8-dihydro-5H-imidazo[1,5-a]pyrazine-1-carboxamide] | 100 to 500 |
| COc1ccc(-n2c(C(=O)NCc3ccc4oc(C)nc4c3)c3n(c2=O)CCN(C(=O)c2ccc(Cl)c(Cl)c2)C3)cc1 [Example 67, 7-(3,4-dichlorobenozyl)-2-(4-methoxyphenyl)-N-[(2-methyl-1,3-benzoxazol-5-yl)methyl]-3-oxo-6,8-dihydro-5H-imidazo[1,5-a]pyrazine-1-carboxamide] | 500 to 5000 |
| N#Cc1ccc(CNC(=O)c2c3n(c(=O)n2-c2ccc(OC4CC4)cc2)CCN(C(=O)c2ccc(Br)c(Cl)c2)C3)c(F)c1 [Example 307] | 500 to 5000 |
| CC(C)(C)Oc1ccc(-n2c(C(=O)NCc3ccccc3)c3n(c2=O)CCN(C(=O)c2ccc(Br)c(Cl)c2)C3)cc1 [Example 396, N-benzyl-7-(4-bromo-3-chloro-benzoyl)-2-(4-tert-butoxyphenyl)-3-oxo-6,8-dihydro-5H-imidazo[1,5-a]pyrazine-1-carboxamide] | 100 to 500 |

From patent publication US11591341B2 (ALIGOS THERAPEUTICS, INC., priority 2019, dated 2023)
